The source of these data is publication PMC12360161, “Identifying 14-3-3 interactome binding sites with deep learning” (Digital Discovery, 2025).

Experiment [1] deals with T1, full-length (FL) human 14-3-3γ protein (Homo sapiens, UniProt P61981).
T1 construct: The full-length (FL) human 14-3-3γ protein was expressed from a pPROEX plasmid; His6; made in house; host or cells: E. coli BL21(DE3)
T1 sequence (P61981 1-247): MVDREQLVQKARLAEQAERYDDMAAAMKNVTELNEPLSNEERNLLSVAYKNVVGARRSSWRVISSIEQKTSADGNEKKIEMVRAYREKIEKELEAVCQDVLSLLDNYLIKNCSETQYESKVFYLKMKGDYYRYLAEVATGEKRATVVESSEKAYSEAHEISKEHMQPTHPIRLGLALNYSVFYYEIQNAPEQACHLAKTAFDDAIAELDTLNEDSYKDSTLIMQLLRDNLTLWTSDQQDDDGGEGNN
The experiment can be described thus: Fluorescence anisotropy (FA) assay of FAM-labeled peptides binding to 14-3-3γ. The following applies: for Kd: 14-3-3γ FL dilution series (starting at 500 μM) to 10 nM FAM-labeled peptide, 10 mM HEPES pH 7.4, 150 mM NaCl, 0.1% Tween20, 1 mg/mL BSA, room temperature, Hill fit, mean ± SD; for Binding in the FA assay (in words): 14-3-3γ, 10 nM FAM-labeled peptide. On the procedure:
To study the binding of the fluorescently labelled peptides to 14-3-3, Fluorescence Anisotropy (FA) assays were carried out.[23] In the case of binding, tumbling of the peptide with the attached fluorophore will slow down and the emitted light will be polarized. This will lead to a higher anisotropy.[79] For all experiments, 14-3-3γ was used as it was shown in multiple experiments to be the strongest binding variant suitable for experimental screening.[80] The FAM-labeled peptides and the 14-3-3γ FL protein were diluted in buffer (10 mM HEPES pH 7.4, 150 mM NaCl, 0.1% Tween20, 1 mg mL^−1 BSA).
Dilution series of 14-3-3γ proteins (starting at 500 μM) were made to 10 nM of the FAM-labeled peptides in black, round-bottom 384-microwell (Corning) in a final sample volume of 10 μL. Fluorescence anisotropy values were measured using a Tecan Spark Control at room temperature filter set lex: 485 ± 20 nm, lem: 535 ± 25 nm, mirror: Dichroic 510, flashes: 30, integration time: 40 μs, settle time: 1 μs; gain: optimized per peptide, and Z-position: calculated from well. Wells containing only FAM-peptide were used to set as G-factor. The KD values were obtained from fitting the data using Origin 2020 with a Sigmoid Hill1 function (using the Hill equation). Data shown is the average and standard deviation of triplicates. For dose–response curves on a linear scale seep SI Fig. S2.

For experiment [2], the target named is T2, full-length (FL) human 14-3-3γ protein (human, UniProt P61981 1-247).
T2 construct: 14-3-3 gamma, human, full length; also called 14-3-3γ FL
T2 sequence (looked up): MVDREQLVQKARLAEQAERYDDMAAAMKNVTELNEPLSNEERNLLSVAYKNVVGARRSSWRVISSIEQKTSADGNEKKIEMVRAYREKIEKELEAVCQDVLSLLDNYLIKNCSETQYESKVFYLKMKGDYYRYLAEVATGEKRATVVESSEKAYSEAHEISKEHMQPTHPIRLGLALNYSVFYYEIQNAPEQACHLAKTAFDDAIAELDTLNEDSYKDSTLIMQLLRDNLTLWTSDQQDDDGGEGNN
The experiment in a line: fluorescence polarisation; fluorescence anisotropy; dilution series of 14-3-3γ (starting at 500 μM) to 10 nM FAM-labeled peptide; 10 mM HEPES pH 7.4, 150 mM NaCl, 0.1% Tween20, 1 mg/mL BSA; room temperature; Hill fit; triplicates. Particulars: both partners purified.

Experiment [3] deals with T2, full-length (FL) human 14-3-3γ protein. The description is as above. The following applies: both partners purified. This is another data set of the same source.

Where two headings read alike, the source gives them in different places. Where a SMILES comes first, the peptide text is derived from it. Where no end group is shown, it is not given here. [ ]: non-standard residue; d: D form. The star is where a group is joined. 5FAM = O=C1OC2(c3ccc(O)cc3Oc3cc(O)ccc32)c2ccc(C(=O)*)cc21; pT = C[C@@H](OP(=O)(O)O)[C@H](N)C(=O)O; pS = N[C@@H](COP(=O)(O)O)C(=O)O; Ahx = NCCCCCC(=O)O

A word on the Kd: it is a measure of binding affinity in units of concentration. Regarding `CC(C)C[C@H](NC(=O)CCCCCNC(=O)c1ccc2c(c1)C(=O)OC21c2ccc(O)cc2Oc2cc(O)ccc21)C(=O)N[C@@H](Cc1c[nH]cn1)C(=O)N[C@@H](CCC(=O)O)C(=O)N[C@@H](CCC(=O)O)C(=O)N[C@H](C(=O)N1CCC[C@H]1C(=O)N1CCC[C@H]1C(=O)N[C@H](C(=O)N[C@H](C(=O)N[C@@H](CO)C(=O)N[C@@H](CO)C(=O)N[C@@H](CC(=O)O)C(=O)N[C@@H](CO)C(=O)N[C@@H](CCC(=O)O)C(=O)N[C@@H](CCC(=O)O)C(N)=O)[C@@H](C)O)[C@@H](C)OP(=O)(O)O)[C@@H](C)O` [Peptide 10] ({5FAM-Ahx}-LHEETPP[pT]TSSDSEE-NH2), the Kd in experiment [1] (n = 3) is > 500 µM. The “Binding in the FA assay (in words)” value in experiment [1] is reported as “did not bind”. In the same order, the values of `CC[C@H](C)[C@H](NC(=O)CNC(=O)[C@H](C)NC(=O)[C@H](CCC(=O)O)NC(=O)[C@H](CCC(=O)O)NC(=O)CCCCCNC(=O)c1ccc2c(c1)C(=O)OC21c2ccc(O)cc2Oc2cc(O)ccc21)C(=O)NCC(=O)N[C@@H](CC(=O)O)C(=O)N[C@H](C(=O)N1CCC[C@H]1C(=O)N[C@@H](CO)C(=O)N[C@@H](CC(C)C)C(=O)N[C@@H](CCC(=O)O)C(=O)N[C@@H](CC(=O)O)C(=O)N[C@@H](CCC(=O)O)C(=O)N[C@@H](C)C(N)=O)[C@@H](C)OP(=O)(O)O` [Peptide 9] ({5FAM-Ahx}-EEAGIGD[pT]PSLEDEA-NH2) are > 500 µM and “did not bind”. With `C[C@H](NC(=O)[C@H](CO)NC(=O)[C@@H]1CCCN1C(=O)[C@H](CO)NC(=O)CNC(=O)[C@H](COP(=O)(O)O)NC(=O)[C@H](CCC(=O)O)NC(=O)[C@H](CO)NC(=O)[C@H](CCCNC(=N)N)NC(=O)[C@H](CCCCN)NC(=O)CNC(=O)[C@@H]1CCCN1C(=O)[C@H](C)NC(=O)CCCCCNC(=O)c1ccc2c(c1)C(=O)OC21c2ccc(O)cc2Oc2cc(O)ccc21)C(=O)NCC(=O)NCC(N)=O` [Peptide 8] ({5FAM-Ahx}-APGKRSE[pS]GSPSAGG-NH2), in experiment [1] (n = 3, read-out: Kd), the equilibrium dissociation constant (Kd) is > 100 µM. With `CC(C)C[C@H](NC(=O)[C@H](CO)NC(=O)[C@H](CC(=O)O)NC(=O)[C@H](CC(=O)O)NC(=O)CNC(=O)[C@H](CC(N)=O)NC(=O)[C@H](COP(=O)(O)O)NC(=O)[C@@H](NC(=O)[C@H](CCCCN)NC(=O)[C@H](CCCNC(=N)N)NC(=O)[C@H](CC(N)=O)NC(=O)[C@H](CC(N)=O)NC(=O)[C@H](CC(N)=O)NC(=O)[C@H](CC(N)=O)NC(=O)CCCCCNC(=O)c1ccc2c(c1)C(=O)OC21c2ccc(O)cc2Oc2cc(O)ccc21)[C@@H](C)O)C(=O)N[C@@H](Cc1ccccc1)C(N)=O` [Peptide 5] ({5FAM-Ahx}-NNNNRKT[pS]NGDDSLF-NH2), in experiment [1] (n = 3, read-out: Kd), the Kd is > 500 µM. In addition, the “Binding in the FA assay (in words)” value in experiment [1] is given as “no binding”. Take `CSCC[C@H](NC(=O)[C@H](CCCNC(=N)N)NC(=O)[C@H](CCCNC(=N)N)NC(=O)[C@H](CC(C)C)NC(=O)[C@H](CCC(=O)O)NC(=O)[C@H](CCCNC(=N)N)NC(=O)CNC(=O)CCCCCNC(=O)c1ccc2c(c1)C(=O)OC21c2ccc(O)cc2Oc2cc(O)ccc21)C(=O)N[C@@H](COP(=O)(O)O)C(=O)N[C@@H](CC(=O)O)C(=O)N[C@@H](CCC(=O)O)C(=O)N[C@@H](Cc1ccccc1)C(=O)N[C@H](C(=O)N[C@@H](CC(=O)O)C(=O)N[C@@H](CO)C(=O)N[C@@H](Cc1ccccc1)C(N)=O)C(C)C` [Peptide 7] ({5FAM-Ahx}-GRELRRM[pS]DEFVDSF-NH2): in experiment [1] (n = 3, read-out: Kd), the dissociation constant (Kd) was > 100 µM.

B1: BAD pS134 peptide (peptide 6), FAM-labelled (peptide)
peptide: {5FAM-Ahx}-KGLPRPK[pS]AGTATQM-NH2
SMILES: CSCC[C@H](NC(=O)[C@H](CCC(N)=O)NC(=O)[C@@H](NC(=O)[C@H](C)NC(=O)[C@@H](NC(=O)CNC(=O)[C@H](C)NC(=O)[C@H](COP(=O)(O)O)NC(=O)[C@H](CCCCN)NC(=O)[C@@H]1CCCN1C(=O)[C@H](CCCNC(=N)N)NC(=O)[C@@H]1CCCN1C(=O)[C@H](CC(C)C)NC(=O)CNC(=O)[C@H](CCCCN)NC(=O)CCCCCNC(=O)c1ccc2c(c1)C(=O)OC21c2ccc(O)cc2Oc2cc(O)ccc21)[C@@H](C)O)[C@@H](C)O)C(N)=O
notes: Bcl-2-associated agonist of cell death (BAD), seven residues before and after phosphosite 134; source: synthetic peptide, bought: GenScript
Molecule B1 had a dissociation constant Kd in experiment [2] of 15.9 µM.

B2: Tau-pS214 peptide (peptide)
chain: GSRSRTP[pS]LPTPPTR
As for B2, the affinity in experiment [3], expressed as Kd, was 16.4 ± 0.9 µM.

B3: Tau pS198 peptide (peptide 4), FAM-labelled (peptide)
peptide: {5FAM-Ahx}-SGDRSGY[pS]SPGSPGT-NH2
SMILES: C[C@@H](O)[C@H](NC(=O)CNC(=O)[C@@H]1CCCN1C(=O)[C@H](CO)NC(=O)CNC(=O)[C@@H]1CCCN1C(=O)[C@H](CO)NC(=O)[C@H](COP(=O)(O)O)NC(=O)[C@H](Cc1ccc(O)cc1)NC(=O)CNC(=O)[C@H](CO)NC(=O)[C@H](CCCNC(=N)N)NC(=O)[C@H](CC(=O)O)NC(=O)CNC(=O)[C@H](CO)NC(=O)CCCCCNC(=O)c1ccc2c(c1)C(=O)OC21c2ccc(O)cc2Oc2cc(O)ccc21)C(N)=O
notes: Tau, seven residues before and after phosphosite 198; numbers count on: P10636-8; source: synthetic peptide, bought: GenScript
For the molecule B3, the dissociation constant Kd in experiment [2] was determined as 71 µM.

B4: FOXO3 pS413 peptide (peptide 1), FAM-labelled (peptide)
peptide: {5FAM-Ahx}-GLMQRSS[pS]FPYTTKG-NH2
SMILES: CSCC[C@H](NC(=O)[C@H](CC(C)C)NC(=O)CNC(=O)CCCCCNC(=O)c1ccc2c(c1)C(=O)OC21c2ccc(O)cc2Oc2cc(O)ccc21)C(=O)N[C@@H](CCC(N)=O)C(=O)N[C@@H](CCCNC(=N)N)C(=O)N[C@@H](CO)C(=O)N[C@@H](CO)C(=O)N[C@@H](COP(=O)(O)O)C(=O)N[C@@H](Cc1ccccc1)C(=O)N1CCC[C@H]1C(=O)N[C@@H](Cc1ccc(O)cc1)C(=O)N[C@H](C(=O)N[C@H](C(=O)N[C@@H](CCCCN)C(=O)NCC(N)=O)[C@@H](C)O)[C@@H](C)O
notes: forkhead box O3 (FOXO3), seven residues before and after phosphosite 413; also called FOXO pS413; source: synthetic peptide, bought: GenScript
In experiment [2], B4 showed an equilibrium dissociation constant (Kd) of 1.6 µM.

B5: Notch 4 pS1847 peptide (peptide 3), FAM-labelled (peptide)
peptide: {5FAM-Ahx}-FPRARTV[pS]VSVPPHG-NH2
SMILES: CC(C)[C@H](NC(=O)[C@H](COP(=O)(O)O)NC(=O)[C@@H](NC(=O)[C@@H](NC(=O)[C@H](CCCNC(=N)N)NC(=O)[C@H](C)NC(=O)[C@H](CCCNC(=N)N)NC(=O)[C@@H]1CCCN1C(=O)[C@H](Cc1ccccc1)NC(=O)CCCCCNC(=O)c1ccc2c(c1)C(=O)OC21c2ccc(O)cc2Oc2cc(O)ccc21)[C@@H](C)O)C(C)C)C(=O)N[C@@H](CO)C(=O)N[C@H](C(=O)N1CCC[C@H]1C(=O)N1CCC[C@H]1C(=O)N[C@@H](Cc1c[nH]cn1)C(=O)NCC(N)=O)C(C)C
notes: Notch-4, seven residues before and after phosphosite 1847; also called NOTCH pS1847; source: synthetic peptide, bought: GenScript
For the molecule B5, the dissociation constant Kd in experiment [2] turned out to be 70 µM.

B6: Tau pT245 peptide (peptide 2), FAM-labelled (peptide)
peptide: SAKSRLQ[pT]APVPMPD-NH2
modifications: not fully specified (N-terminus)
notes: Tau, seven residues before and after phosphosite 245; numbers count on: P10636-8; source: synthetic peptide, bought: GenScript
With B6, the Kd in experiment [3] was 8.5 ± 0.2 µM; in experiment [2], 8.6 µM.

B7: Tau-pS324 peptide (peptide)
chain: KVTSKCG[pS]LGNIHHK
In the case of B7, the dissociation constant Kd in experiment [3] is > 100 µM.
